Laboratory results from US4241051A, “Calcitonin” (priority 1977, dated 1980).

Test system: bPTH-stimulated resorption
Assay: Calcitonin ear drops in 45Ca-labelled guinea pigs; 45Ca release from explanted ossicles after bPTH stimulation
Assay type: in vivo
Settings: for antagonism by calcitonin of the bPTH-stimulated resorption (45Ca release into bathing medium): 40 hour reading
Experimental: A large dose of radio calcium (400 μCi of ^45 Ca) is administered intravenously to each of eight guinea pigs to label their skeletons. On the third, fourth and fifth days after administration of the radiocalcium each of the guinea pigs receives ear drops containing a solution of synthetic salmon calcitonin (Armour Pharmaceutical Co.) dissolved in dimethylsulphoxide (0.1 ml of solution containing 25μg of calcitonin). Four of the animals receive calcitonin to the right ear and four to the left ear, 0.1 ml of dimethylsulphoxide being given to the other ear in each case as a control.
One hour before sacrifice on the fifth day three animals from each group of four are treated intravenously with 500 MRC units of bovine parathyroid hormone (bPTH; 2000U/mg) in diluted plasma to stimulate bone resorption, the remaining animal in each group receiving diluted plasma only as a control. After sacrifice in alternation by ether anaesthesia, the ossicles of each ear of each animal are removed by the opening the temporal bone from its lower surface, remote from the external ear to which calcitonin has been applied. They are explanted onto a filter disc (Millipore HA) in a tissue culture dish containing 1 ml of the Fitton-Jackson modification of BGJ (Gibco-Biocult Ltd) with added ascorbic acid (150 μg/ml), streptomycin (5 mg/100 ml) and penicillin (5000U/100 ml), gassed with 93% air, 7% carbon dioxide. The bathing medium is withdrawn from each dish after 20, 40 and 60 hours incubation in an airtight container at 37° C. and is replaced with freshly gassed medium. After addition to 4 ml aliquots of scintillator (Packard Instagel) the samples are subjected to liquid scintillation spectrometry (Packard 2425 set to the ^14 C channel).
In a variation of the procedure described above, the calcitonin is administered in 0.1% w/v aqueous sodium dioctyl sulphosuccinate rather than in dimethyl sulphoxide in two separate experiments, the whole of the ossicles being explanted as described above in the first case and only the stapes being explanted in the second. In these two experiments some variation is made in the radiolabelling procedure, only 200 μCi of ^45 Ca being given in the first case but intraperitoneally rather than intravenously to facilitate the labelling of bone and 400 μCi of ^45 Ca being given in the second case, also intraperitoneally, but with omission of the methyl red from the BGJ culture medium as this causes considerable quenching.
A group of twenty-four guinea pigs is treated as described in Example 1 to effect labelling of their skeletons, a dose of 400 μCi of ^45 Ca being given intraperitoneally. The animals are then divided into three groups which are treated as described in Example 1 with 0.1 ml of a solution of concentration 27.8 μg/ml, 83.3 μg/ml or 250 μg/ml of synthetic salmon calcitonin in 0.1% w/v aqueous sodium dioctyl sulphosuccinate. The subsequent treatment of the animals follows that of Example 1, the methyl red being omitted from the BGJ culture medium.

synthetic salmon calcitonin
level of effect on 45Ca release from explanted ossicles (Example 2, 0.1 ml ear drops of 27.8 μg/ml in 0.1% w/v aqueous sodium dioctyl sulphosuccinate): little effect
level of effect on 45Ca release from explanted ossicles (Example 2, 0.1 ml ear drops of 83.3 μg/ml in 0.1% w/v aqueous sodium dioctyl sulphosuccinate, compared with 250 μg/ml): very similar level of effect
level of effect on 45Ca release from explanted ossicles (Example 2, 0.1 ml ear drops of 250 μg/ml in 0.1% w/v aqueous sodium dioctyl sulphosuccinate, compared with 83.3 μg/ml): very similar level of effect
duration of effect after application in vivo (Example 2, bathing medium examined after 20, 40 and 60 hours of culture): effect of extended duration
antagonism by calcitonin of the bPTH-stimulated resorption (45Ca release into bathing medium) (ear drops 0.1 ml with 25 μg calcitonin in dimethylsulphoxide, days 3-5, whole of the ossicles explanted, p<0.01): highly significant
antagonism by calcitonin of the bPTH-stimulated resorption (45Ca release into bathing medium) (ear drops with calcitonin in 0.1% w/v aqueous sodium dioctyl sulphosuccinate, only the stapes explanted, p<0.005): highly significant
antagonism by calcitonin of the bPTH-stimulated resorption (45Ca release into bathing medium) (ear drops with calcitonin in 0.1% w/v aqueous sodium dioctyl sulphosuccinate, whole of the ossicles explanted, p<0.01): highly significant
concentration level generally required to achieve an adequate effect (topical composition, calcitonin with a potency of about 4500 International units per mg): greater than 25 micrograms per ml
